Test results as given in patent US20220194938A1, “NOVEL COMPOUNDS AND PHARMACEUTICAL COMPOSITIONS THEREOF FOR THE TREATMENT OF INFLAMMATORY DISORDERS” (GALAPAGOS NV, priority 2019, published 2022).
Where two headings read alike, the source gives them in different places.

How the values were obtained:
[1] = test system: CL097 triggered IFNα and TNFα release in human whole blood; experiment: Ex vivo human IFNα and TNFα release inhibition (whole blood assay, CL097 triggered); format: cell-based; settings: CL097 2 μg/mL, 3 h 30 min
Text: 4.10.1. Ex Vivo Human IFNα and TNFα Release Inhibition (Whole Blood Assay)
The aim of the assay is to evaluate the activity of compounds of the invention on the activated TLR/IRAK-4 pathway in an ex vivo human whole blood setting. Toll-like receptors (TLRs) are pattern recognition receptors that recognize a wide variety of microbial molecules, called pathogen-associated molecular patterns (PAMPs). Human TLR7 and TLR8 recognize imidazoquinoline compounds (e.g., CL097—CAS n #1026249-18-2) and single stranded RNAs as their natural ligands. Activation of TLRs leads to the production of several cytokines (e.g., IFNα, TNFα, IL-8, IL-6) by the TLR agonist-treated cells, whereas IRAK4 leads to the production of IFNα. Cytokine release is used as readout in this assay and represents a measure for the level of inhibition of the TLR/IRAK-4 pathway by the tested compound. It should be noted that in the context of the complete organism, other sources for these cytokines exist that are not dependent on the TLR/IRAK-4 pathway, such as e.g., macrophages (upon activation of the Fcγ receptor (Yan et al. 2012)) or T cells (upon activation of the T cell receptor (Brehm, Daniels, and Welsh 2005)).
4.10.1.1. Experimental Design
Blood was collected from healthy volunteers into lithium heparin tubes by venipuncture, then gently inverted several times to prevent clotting and incubated for at least 15 min at 37° C. on a rocking mixer shaker. Then, 100 μL of blood was dispensed into polypropylene 96-well microplate and pre-incubated in duplicate with 0.3% DMSO or test compound at different concentrations (from 30 to 0.01 μM, 3-fold dilutions to get 0.3% DMSO at the final) for 15 min at 37° C. After this pre-incubation, blood was triggered with CL097 (2 μg/mL from 1 mg/mL solution in water; InvivoGen, tlr1-c97) for 3 h 30 min at 37° C. Microtubes were centrifuged at 5000×g for 10 min at 4° C. and approximately 40 μL of plasma were collected into a polystyrene 96-well plate. Plasma could be analyzed freshly, within 30 min after triggering, or frozen at −80° C. Finally, the quantification of TNFα and IFNα were performed in the plasma using AlphaLISA Kit for […] according to the manufacturer's instructions and read on the Ensight (PerkinElmer).
A standard curve was created by plotting on log-log the mean absorbance on the y-axis against the concentration on the x-axis and a 4 PL was made through the points. For each blood sample, the IFNα concentrations of the samples were determined from the fit.
Data were then expressed as a percentage of inhibition (PIN) for each replicate using the formula:
With mean IFNα with CL097=mean IFNα concentration of replicate samples triggered with CL097; IFNαsample1=IFNα concentration of sample 1; mean IFNα with vehicle=mean IFNα concentration of replicate samples treated with vehicle.
For each blood sample, the TNFα concentrations of the samples were determined from the fit. Data were then expressed as a percentage of inhibition (PIN) for each replicate using the formula:
With mean TNFα with CL097=mean TNFα concentration of replicate samples triggered with CL097; TNFαsample1=TNFα concentration of sample 1; mean TNFα with vehicle=mean TNFα concentration of replicate samples treated with vehicle.
Curve fitting for pIC50 determination were generated using mean PIN±sem. Graphs and pIC50 calculations were derived using Prism 5.03 software (GraphPad).

[2] = test system: pooled cryopreserved hepatocytes; experiment: Metabolic stability in hepatocytes (mouse); format: in vitro ADME; settings: 1 μM test compound
Method: 4.6. Metabolic Stability in Hepatocytes
The aim of this assay is to determine the metabolic stability of the compound in hepatocytes (cryopreserved) of different species. Low hepatocyte stability may result in the formation of unwanted metabolites, high clearance, and therefore is not desirable.
The decrease in parent was assessed by measuring the percentage remaining by LC-MS/MS analysis.
A 10 mM stock solution of test compound in DMSO was first diluted in DMSO to 3 mM, and then in modified Krebs-Henseleit buffer (Sigma, K3753) to 5 μM. This compound dilution was added to a suspension of pooled cryopreserved hepatocytes (BioreclamationIVT) at 37° C. under gentle shaking.
Final reaction conditions were: 1 μM of test compound, 0.03% DMSO, 0.5 million viable hepatocytes/mL, and 75 μL incubation volume.
Testosterone (1 μM) and 7-hydroxycoumarin (1 μM) were used, respectively as phase I and phase II metabolic reaction controls.
After 0, 10, 20, 45, 90, 120 and 180 min of incubation, the reaction was terminated with 225 μL of MeCN:MeOH (2:1) containing 100 ng/mL of diclofenac as analytical internal standard. Samples were mixed, centrifuged and the supernatant analyzed by LC-MS/MS.
The instrument responses (ratios of test compound and internal standard peak areas) were referenced to the zero time point samples (considered as 100%) in order to determine the percentage of compound remaining.
Plots of percentage compound remaining are used to determine the intrinsic clearance in the hepatocyte incubations using the following equations:
Scaled Clint[L/h/kg]=Clint[μL/min/10^6 cells]*#(10^6) cells/g liver*60*(1/10^6) Scaled Clint unbound [L/h/kg]=Clint [L/h/kg]/Fu,inc where: fu,inc equals hepatocyte binding, derived from microsomal binding (fu,mic) by following equation: […]

Structure (SMILES)	IC50 ([1]; read-out: IFNα IC50) [nM]	IC50 ([1]; read-out: TNFα IC50) [nM]	Mouse (Perc. remaining at 90 min) [2] [%]
[2H]C([2H])([2H])NC(=O)c1cc2nc(CCC(C)(C)O)cn2cc1NC(=O)c1cccc(C(F)(F)F)n1 [Compound 1, 2-(3-hydroxy-3-methyl-butyl)-N-(trideuteriomethyl)-6-[[6-(trifluoromethyl)pyridine-2-carbonyl]amino]imidazo[1,2-a]pyridine-7-carboxamide]	1000 to 5000	0.1 to 500	96.3
CNC(=O)c1cc2nc(CCC(C)(C)O)cn2cc1NC(=O)c1cccc(C(F)(F)F)n1 [Compound 2, 2-(3-hydroxy-3-methyl-butyl)-N-methyl-6-[[6-(trifluoromethyl)pyridine-2-carbonyl]amino]imidazo[1,2-a]pyridine-7-carboxamide]	500 to 1000	0.1 to 500	103.4
COc1cc2nc(CCC(C)(C)O)cn2cc1NC(=O)c1cccc(C(F)(F)F)n1 [Compound 3, N-[2-(3-hydroxy-3-methyl-butyl)-7-methoxy-imidazo[1,2-a]pyridin-6-yl]-6-(trifluoromethyl)pyridine-2-carboxamide]	1000 to 5000	–	39.9
COc1cc2nc(CCC(C)(C)O)cn2cc1NC(=O)c1cccn(C)c1=O [Compound 4, N-[2-(3-hydroxy-3-methyl-butyl)-7-methoxy-imidazo[1,2-a]pyridin-6-yl]-1-methyl-2-oxo-pyridine-3-carboxamide]	0.1 to 500	–	87.75
COc1cc2nc(CCC(C)(C)O)cn2cc1NC(=O)c1cccn(C2CC2)c1=O [Compound 5, 1-cyclopropyl-N-[2-(3-hydroxy-3-methyl-butyl)-7-methoxy-imidazo[1,2-a]pyridin-6-yl]-2-oxo-pyridine-3-carboxamide]	0.1 to 500	–	100
COc1cc2nc(CCC(C)(C)O)cn2cc1NC(=O)c1cccc(C)n1 [Compound 6, N-[2-(3-hydroxy-3-methyl-butyl)-7-methoxy-imidazo[1,2-a]pyridin-6-yl]-6-methyl-pyridine-2-carboxamide]	0.1 to 500	–	4.5
COc1cc2nc(CCC(C)(C)O)cn2cc1NC(=O)c1cccc(C(F)F)n1 [Compound 7, 6-(difluoromethyl)-N-[2-(3-hydroxy-3-methyl-butyl)-7-methoxy-imidazo[1,2-a]pyridin-6-yl]pyridine-2-carboxamide]	0.1 to 500	–	26.4
COc1cccc(C(=O)Nc2cn3cc(CCC(C)(C)O)nc3cc2OC)n1 [Compound 8, N-[2-(3-hydroxy-3-methyl-butyl)-7-methoxy-imidazo[1,2-a]pyridin-6-yl]-6-methoxy-pyridine-2-carboxamide]	–	–	26.4
COc1cc2nc(CCC(C)(C)O)cn2cc1NC(=O)c1cccn(C(F)F)c1=O [Compound 12, 1-(difluoromethyl)-N-[2-(3-hydroxy-3-methyl-butyl)-7-methoxy-imidazo[1,2-a]pyridin-6-yl]-2-oxo-pyridine-3-carboxamide]	500 to 1000	–	88.1
COc1cc2nc(CCC(C)(C)O)cn2cc1NC(=O)c1cccn(CC(F)(F)F)c1=O [Compound 13, N-[2-(3-hydroxy-3-methyl-butyl)-7-methoxy-imidazo[1,2-a]pyridin-6-yl]-2-oxo-1-(2,2,2-trifluoroethyl)pyridine-3-carboxamide]	–	–	109.5
COc1cc2nc(CCC(C)(C)O)cn2cc1NC(=O)c1cccn(C2CCC2)c1=O [Compound 18, 1-cyclobutyl-N-[2-(3-hydroxy-3-methyl-butyl)-7-methoxy-imidazo[1,2-a]pyridin-6-yl]-2-oxo-pyridine-3-carboxamide]	–	–	60.9
COc1cc2nc(CCC(C)(C)O)cn2cc1NC(=O)c1cccc(C(C)(F)F)n1 [Compound 20, 6-(1,1-difluoroethyl)-N-[2-(3-hydroxy-3-methyl-butyl)-7-methoxy-imidazo[1,2-a]pyridin-6-yl]pyridine-2-carboxamide]	–	–	75.2
CCn1cccc(C(=O)Nc2cn3cc(CCC(C)(C)O)nc3cc2OC)c1=O [Compound 23, 1-ethyl-N-[2-(3-hydroxy-3-methyl-butyl)-7-methoxy-imidazo[1,2-a]pyridin-6-yl]-2-oxo-pyridine-3-carboxamide]	–	–	89.65

Further lines, results first:

IC50 ([1]; read-out: IFNα IC50) [nM]	IC50 ([1]; read-out: TNFα IC50) [nM]	Mouse (Perc. remaining at 90 min) [2] [%]	Structure (SMILES)
500 to 1000	–	46	COc1cc2nc(CCS(C)(=O)=O)cn2cc1NC(=O)c1cccc(C(F)(F)F)n1 [Compound 24, N-[7-methoxy-2-(2-methylsulfonylethyl)imidazo[1,2-a]pyridin-6-yl]-6-(trifluoromethyl)pyridine-2-carboxamide]
0.1 to 500	–	95.05	COc1cc2nc(CCS(C)(=O)=O)cn2cc1NC(=O)c1cccn(C2CC2)c1=O [Compound 25, 1-cyclopropyl-N-[7-methoxy-2-(2-methylsulfonylethyl)imidazo[1,2-a]pyridin-6-yl]-2-oxo-pyridine-3-carboxamide]
0.1 to 500	0.1 to 500	96.5	CC(C)(O)CCc1cn2cc(NC(=O)c3cccc(C(F)(F)F)n3)c(C(N)=O)cc2n1 [Compound 31, 2-(3-hydroxy-3-methyl-butyl)-6-[[6-(trifluoromethyl)pyridine-2-carbonyl]amino]imidazo[1,2-a]pyridine-7-carboxamide]
> 5000	> 5000	25.85	COCCc1cn2cc(NC(=O)c3cccc(C(F)(F)F)n3)c(OC)cc2n1 [Compound 35, N-[7-methoxy-2-(2-methoxyethyl)imidazo[1,2-a]pyridin-6-yl]-6-(trifluoromethyl)pyridine-2-carboxamide]
–	1000 to 5000	103.5	CCOc1c(NC(=O)c2cccn(C3CC3)c2=O)cn2cc(CCC(C)(C)O)nc2c1F [Compound 37, 1-cyclopropyl-N-[7-ethoxy-8-fluoro-2-(3-hydroxy-3-methyl-butyl)imidazo[1,2-a]pyridin-6-yl]-2-oxo-pyridine-3-carboxamide]
500 to 1000	500 to 1000	–	CCOc1c(NC(=O)c2cccn(C3CC3)c2=O)cn2cc(CCS(C)(=O)=O)nc2c1F [Compound 39, 1-cyclopropyl-N-[7-ethoxy-8-fluoro-2-(2-methylsulfonylethyl)imidazo[1,2-a]pyridin-6-yl]-2-oxo-pyridine-3-carboxamide]
–	–	87.15	CCNC(=O)c1cc2nc(CCC(C)(C)O)cn2cc1NC(=O)c1cccc(C(F)(F)F)n1 [Compound 49, N-ethyl-2-(3-hydroxy-3-methylbutyl)-6-(6-(trifluoromethyl)picolinamido)imidazo[1,2-a]pyridine-7-carboxamide]
